Results reported in the supplement of paper PMC10307832.

Experiments:
Experiment in all cases: relative viability (nuclei count vs DMSO), 5 days (fraction); higher = more cells survive
[1] = compound: CC(=O)Nc1cccc(-n2c(=O)n(C3CC3)c(=O)c3c(Nc4ccc(I)cc4F)n(C)c(=O)c(C)c32)c1 [Trametinib] + CC1(C)CCC(c2ccc(Cl)cc2)=C(CN2CCN(c3ccc(C(=O)NS(=O)(=O)c4ccc(N[C@H](CCN5CCOCC5)CSc5ccccc5)c(S(=O)(=O)C(F)(F)F)c4)cc3)CC2)C1 [Navitoclax] (partner 0.5 µM)
Outline: (§1)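 One day after seeding in 1536-well plates, lung cancer cell lines were dosed by pin tool. Dosing was either single-drug or a fixed anchor-drug dose plus five library-drug doses (not always all listed) in √10 steps. After 5 days, nuclei were stained in one fix-and-stain step and counted on 4× images, and relative viability is the nuclei count of treated wells over that of vehicle wells, given as the median of duplicate plates.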

[2] = compound: CC(=O)Nc1cccc(-n2c(=O)n(C3CC3)c(=O)c3c(Nc4ccc(I)cc4F)n(C)c(=O)c(C)c32)c1 [Trametinib] + CCNC(=O)c1noc(-c2cc(C(C)C)c(O)cc2O)c1-c1ccc(CN2CCOCC2)cc1 [Luminespib] (partner 0.01 µM)
Outline: as §1

[3] = compound: CN1C=C(C2=CC=CC=C21)/C=C\3/C4=C(C=CC=N4)NC3=O + C[C@]1(O)C[C@@H](c2nc(-c3ccc4ccc(-c5ccccc5)nc4c3)c3c(N)nccn32)C1 [Linsitinib] (partner 1 µM)
Outline: as §1

[4] = compound: CC(=O)Nc1cccc(-n2c(=O)n(C3CC3)c(=O)c3c(Nc4ccc(I)cc4F)n(C)c(=O)c(C)c32)c1 [Trametinib] + Cc1cc(Nc2cc(N3CCN(C)CC3)nc(Sc3ccc(NC(=O)C4CC4)cc3)n2)n[nH]1 [Tozasertib] (partner 0.1 µM)
Outline: as §1

Row | Cell Line | relative viability ([1]; first compound 0.0025 µM) | relative viability ([1]; first compound 0.007906 µM) | relative viability ([1]; first compound 0.025 µM) | relative viability ([1]; first compound 0.07906 µM) | relative viability ([1]; first compound 0.25 µM) | relative viability ([2]; first compound 0.0025 µM) | relative viability ([2]; first compound 0.007906 µM) | relative viability ([2]; first compound 0.025 µM) | relative viability ([2]; first compound 0.07906 µM) | relative viability ([2]; first compound 0.25 µM) | relative viability ([3]; first compound 0.02 µM) | relative viability ([3]; first compound 0.06325 µM) | relative viability ([3]; first compound 0.2 µM) | relative viability ([3]; first compound 0.6325 µM) | relative viability ([3]; first compound 2 µM) | relative viability ([4]; first compound 0.0025 µM) | relative viability ([4]; first compound 0.007906 µM) | relative viability ([4]; first compound 0.025 µM) | relative viability ([4]; first compound 0.07906 µM) | relative viability ([4]; first compound 0.25 µM)
1 | LOU-NH91 | 0.657 | 0.528 | 0.57 | 0.448 | 0.32 | 0.348 | 0.365 | 0.278 | 0.305 | 0.279 | 0.858 | 0.889 | 0.851 | 0.928 | 0.927 | 0.639 | 0.609 | 0.592 | 0.548 | 0.399
2 | LU99A | 0.855 | 0.779 | 0.465 | 0.363 | 0.235 | 0.297 | 0.241 | 0.187 | 0.189 | 0.151 | 0.534 | 0.506 | 0.509 | 0.485 | 0.617 | 0.234 | 0.272 | 0.232 | 0.244 | 0.232
3 | LXF-289 | 0.872 | 0.755 | 0.721 | 0.63 | 0.538 | 0.616 | 0.642 | 0.507 | 0.491 | 0.351 | 0.901 | 0.935 | 1.04 | 1 | 0.999 | 0.198 | 0.174 | 0.208 | 0.181 | 0.143
4 | NCI-H23 | 0.624 | 0.58 | 0.347 | 0.344 | 0.247 | 0.234 | 0.185 | 0.17 | 0.213 | 0.221 | 0.614 | 0.648 |  | 0.655 | 0.631 | 0.339 | 0.211 | 0.283 | 0.248 | 0.213
5 | NCI-H322M | 1.15 | 0.97 | 1.01 | 0.827 | 0.687 | 0.749 | 0.634 | 0.471 | 0.473 | 0.404 | 1.01 | 0.993 | 0.874 | 0.819 | 0.862 | 0.465 | 0.361 | 0.387 | 0.331 | 0.369
6 | NCI-H441 | 0.761 | 0.633 | 0.572 | 0.312 | 0.278 | 0.331 | 0.264 | 0.362 | 0.285 | 0.327 | 0.634 | 0.588 | 0.494 | 0.424 | 0.57 | 0.647 | 0.677 | 0.523 | 0.461 | 0.525
7 | NCI-H460 | 1.08 | 0.981 | 0.727 | 0.277 | 0.0346 | 0.0314 | 0.0296 | 0.0277 | 0.0263 | 0.0269 | 0.8 | 0.838 | 0.789 |  | 0.906 | 0.267 | 0.262 | 0.278 | 0.152 | 0.0343
8 | NCI-H520 | 1.11 | 1.15 | 1.04 | 1.01 | 0.77 | 0.252 | 0.2 | 0.259 | 0.253 | 0.218 | 0.87 | 0.808 | 0.963 | 0.96 | 1.02 | 0.388 | 0.46 | 0.473 | 0.469 | 0.362
9 | NCI-H596 | 0.893 | 0.624 | 0.525 | 0.498 | 0.363 | 0.901 | 0.775 | 0.65 | 0.727 | 0.523 | 0.976 | 1.08 | 0.934 | 0.935 | 1.05 | 0.867 | 0.733 | 0.602 | 0.784 | 0.464
10 | NCI-H647 | 1.01 | 1.07 | 0.834 | 0.55 | 0.267 | 0.183 | 0.12 | 0.324 | 0.209 | 0.102 | 0.933 | 0.922 | 0.896 | 1.2 | 1.1 | 0.188 | 0.216 | 0.261 | 0.216 | 0.136
11 | NCI-H727 | 0.158 | 0.117 | 0.0956 | 0.0926 | 0.0927 | 0.297 | 0.314 | 0.291 | 0.244 | 0.225 | 0.285 | 0.204 | 0.282 | 0.323 | 0.263 | 0.353 | 0.337 | 0.287 | 0.231 | 0.279
12 | NCI-H838 | 1.05 | 0.973 |  | 1.01 | 0.718 | 0.289 | 0.291 | 0.247 | 0.204 | 0.208 | 0.662 | 0.866 | 0.944 | 0.904 | 0.986 | 0.275 | 0.24 | 0.225 | 0.217 | 0.22
13 | NCI-H1355 | 0.764 | 0.832 | 0.51 | 0.563 | 0.414 | 0.486 | 0.605 | 0.323 | 0.35 | 0.3 | 0.702 | 0.748 | 0.73 | 0.56 | 0.632 | 0.588 | 0.463 | 0.418 | 0.394 | 0.318
14 | NCI-H1395 | 1.17 | 1.01 | 1.27 | 1.14 | 0.685 | 0.616 | 0.703 | 0.691 | 0.775 | 0.403 | 0.977 | 1.11 |  | 1.15 | 0.945 | 0.797 | 0.73 | 0.721 | 0.718 | 0.548
15 | NCI-H1437 | 1.15 | 0.724 | 0.537 | 0.377 | 0.312 | 1.12 | 0.923 | 0.709 | 0.627 | 0.602 | 1.06 | 1.12 | 1.25 | 1.18 | 1.2 | 0.266 | 0.289 | 0.239 | 0.204 | 0.175
